Key:
[1] = Smoking sensory evaluation of cigarettes by testers (1 to 10 scale, N=28); type: in vivo; details: 1 mg
[2] = as above; type: in vivo; details: smoked cigarette
Method: Test cigarettes were produced using the following amounts of WS-3 applied to the aerosol-generating material in the tobacco rod in the form of a solution:
Various cigarettes were prepared and smoked so that the (1) menthol-family flavor intensity; (2) cooling sensation; and (3) tobacco taste intensity could each be evaluated by testers on a 1 to 10 scale (N=28).

[3] = Sniffing Analysis of uncombusted tobacco, Quantitative Descriptive Profiling (ISO 13299)
Method: Further samples were analyzed using “Sniffing Analysis”, an applied sensory method for the assessment of characterizing flavors of standard products, by sniffing the tobacco itself, without combusting it, using a method as provided in the international standard ISO 13299. The data is set out in Tables 4 and 5, showing the results of Quantitative Descriptive Profiling (QDP), providing a score of between 0 and 5 for perception of the different tobacco typical and non-tobacco typical flavor notes
A critical intensity of a Mean >1.0 is highlighted in bold in Tables 4 and 5. On the 0-5 category scale, none of the prototype cigarette of “W53” or “WS23” show any critical intensity above 1.0 for the Non-Tobacco Typical Flavor Notes (see Table 5).

Solubility in solvents = type: physicochemical
[4] = Stability and migration in the delivery system; type: physicochemical
Excerpt: The menthol in a pack of mentholated cigarettes, for example, is contained by an outer plastic packaging film. Within this packaging film, the menthol migrates and equilibrates. However, once this outer packaging film is removed (upon opening the pack for the first time), the menthol will begin to be lost. This migration and loss of the volatile menthol needs to be factored in when deciding how much menthol to include in each delivery system and where to apply it. It also means that the menthol delivery may vary depending on where the menthol is located when the delivery system is used.
This means that greater significance is attached to the amount of WS-3 incorporated into the delivery system, as well as where and how it is incorporated.
In some embodiments, the cooling agent WS-3 is present in the aerosol-generating material. In some embodiments, the cooling agent WS-3 is applied to the aerosol-generating material. As the delivery system is used, the WS-3 is volatilized and is entrained in the aerosol flow through the delivery system. […] This is despite the high temperatures seen in the rods of aerosol-generating material in combustible aerosol provision system, such as cigarettes. This is also despite the relatively low volatility of the WS-3 compared to some cooling agents used in delivery systems, such as menthol.

## CNC(=O)C(C)(C(C)C)C(C)C [WS-23]
[1]
  Overall flavor conclusion of smoking and sniffing analysis: very low, but detectable minty/menthol flavor
[2]; 1.0 mg cooling agent
  Menthol-Family Flavor Intensity: 2.2
  Tobacco Taste Intensity: 3.9
[3]; 1 mg, score 0-5
  Non-Tobacco Typical Flavor Note: Alcoholic: .0
  Non-Tobacco Typical Flavor Note: Cacao: .1
  Non-Tobacco Typical Flavor Note: Caramel: .1
  Non-Tobacco Typical Flavor Note: Citrus: .2
  Non-Tobacco Typical Flavor Note: Floral: .1
  Non-Tobacco Typical Flavor Note: Fruity: .2
  Non-Tobacco Typical Flavor Note: Honey: .1
  Non-Tobacco Typical Flavor Note: Licorice: .0
  Non-Tobacco Typical Flavor Note: Minty: .7
  Non-Tobacco Typical Flavor Note: Spicy: .0
  Non-Tobacco Typical Flavor Note: Vanilla: .3
  Tobacco Typical Flavor Note: Animalic: 0.1
  Tobacco Typical Flavor Note: Black Tea: 0.1
  Tobacco Typical Flavor Note: Earthy: 0.3
  Tobacco Typical Flavor Note: Haylike: 0.9
  Tobacco Typical Flavor Note: Roasted: 0.7
  Tobacco Typical Flavor Note: Smoky: 0.1
  Tobacco Typical Flavor Note: Tobacco: 3.5
  Tobacco Typical Flavor Note: Woody: 1.0
[3]; 1 mg, score 0-5, listed as WS23
  Non-Tobacco Typical Flavor Note: Minty: 0.7

## CCNC(=O)C1CC(C)CCC1C(C)C (stereo not drawn) [WS-3, N-ethyl-2-(isopropyl)-5-methylcyclohexane carboxamide]
Solubility in solvents; alcohol or DMSO versus propylene glycol
  Solubility in solvents versus humectants: higher in the solvents than in humectants such as propylene glycol
Solubility in solvents; alcohol, such as ethanol, and DMSO
  Solubility: readily soluble
[1]
  Overall flavor conclusion of smoking and sniffing analysis: provides a cooling sensation without menthol flavor
[4]; high temperatures in rods of combustible aerosol provision systems
  Stability in the aerosol: stable molecule and is not transformed and does not react with other chemicals in the aerosol
[4]
  Migration within the delivery system or packaging during storage: does not migrate
[2]; 1.0 mg cooling agent
  Cooling Sensation: significant higher than both control products
[3]; 1 mg, score 0-5
  Non-Tobacco Typical Flavor Note: Alcoholic: .0
  Non-Tobacco Typical Flavor Note: Cacao: .2
  Non-Tobacco Typical Flavor Note: Caramel: .1
  Non-Tobacco Typical Flavor Note: Citrus: .0
  Non-Tobacco Typical Flavor Note: Floral: .0
  Non-Tobacco Typical Flavor Note: Fruity: .1
  Non-Tobacco Typical Flavor Note: Honey: .1
  Non-Tobacco Typical Flavor Note: Licorice: .0
  Non-Tobacco Typical Flavor Note: Minty: .0
  Non-Tobacco Typical Flavor Note: Spicy: .1
  Non-Tobacco Typical Flavor Note: Vanilla: .3
  Tobacco Typical Flavor Note: Animalic: 0.1
  Tobacco Typical Flavor Note: Black Tea: 0.0
  Tobacco Typical Flavor Note: Earthy: 0.3
  Tobacco Typical Flavor Note: Haylike: 1.1
  Tobacco Typical Flavor Note: Roasted: 0.7
  Tobacco Typical Flavor Note: Smoky: 0.0
  Tobacco Typical Flavor Note: Tobacco: 3.9
  Tobacco Typical Flavor Note: Woody: 1.3

## CC1CCC(C(C)C)C(O)C1 (stereo not drawn) [Menthol]
[4]
  Migration within the delivery system or packaging during storage: highly volatile and migrates
[2]; 1.5 mg menthol (low)
  Cooling Sensation: 4.8
  Menthol-Family Flavor Intensity: 4.1
  Tobacco Taste Intensity: 3.1
[2]; 3.5 mg menthol (medium)
  Cooling Sensation: 7.6
  Menthol-Family Flavor Intensity: 7.0
  Tobacco Taste Intensity: 2.1
[2]; 5.0 mg menthol (high)
  Cooling Sensation: 8.8
  Menthol-Family Flavor Intensity: 8.0
  Tobacco Taste Intensity: 1.4
[3]; 4 mg, score 0-5
  Non-Tobacco Typical Flavor Note: Alcoholic: .1
  Non-Tobacco Typical Flavor Note: Cacao: .0
  Non-Tobacco Typical Flavor Note: Caramel: .1
  Non-Tobacco Typical Flavor Note: Citrus: .0
  Non-Tobacco Typical Flavor Note: Floral: .0
  Non-Tobacco Typical Flavor Note: Fruity: .0
  Non-Tobacco Typical Flavor Note: Honey: .1
  Non-Tobacco Typical Flavor Note: Licorice: .0
  Non-Tobacco Typical Flavor Note: Minty: .9
  Non-Tobacco Typical Flavor Note: Spicy: .0
  Non-Tobacco Typical Flavor Note: Vanilla: .1
  Tobacco Typical Flavor Note: Animalic: 0.0
  Tobacco Typical Flavor Note: Black Tea: 0.0
  Tobacco Typical Flavor Note: Earthy: 0.0
  Tobacco Typical Flavor Note: Haylike: 0.0
  Tobacco Typical Flavor Note: Roasted: 0.1
  Tobacco Typical Flavor Note: Smoky: 0.0
  Tobacco Typical Flavor Note: Tobacco: 0.6
  Tobacco Typical Flavor Note: Woody: 0.1
[3]; 4 mg, score 0-5, listed as menthol
  Non-Tobacco Typical Flavor Note: Minty: 4.9

Reference: patent publication US20230157350A1, “DELIVERY SYSTEMS AND METHODS OF MAKING THE SAME” (British American Tobacco (Investments) Limited, priority 2020, published 2023)
